Test results: the NIST ThermoML archive (doi:10.1016/j.jct.2007.07.005)

Experiment: xn = mol fraction of the nth substance listed
Settings: Fluid (supercritical or subcritical phases), vibrating tube

CCCCCO [pentan-1-ol] + O=C=O
Settings | mass density [kg/m3]
312.96 K, 512 kPa, x2 = 0 | 799.65
312.96 K, 1022 kPa, x2 = 0 | 800.04
312.96 K, 1998 kPa, x2 = 0 | 800.77
312.96 K, 3005 kPa, x2 = 0 | 801.53
312.96 K, 4003 kPa, x2 = 0 | 802.28
312.96 K, 5002 kPa, x2 = 0 | 803.02
312.96 K, 6018 kPa, x2 = 0 | 803.76
312.96 K, 6994 kPa, x2 = 0 | 804.49
312.96 K, 8008 kPa, x2 = 0 | 805.21
312.96 K, 9005 kPa, x2 = 0 | 805.93
312.96 K, 10008 kPa, x2 = 0 | 806.66
312.96 K, 11008 kPa, x2 = 0 | 807.37
312.96 K, 12000 kPa, x2 = 0 | 808.07
312.96 K, 13024 kPa, x2 = 0 | 808.78
312.96 K, 13987 kPa, x2 = 0 | 809.45
312.96 K, 15014 kPa, x2 = 0 | 810.14
312.96 K, 15991 kPa, x2 = 0 | 810.8
312.96 K, 17019 kPa, x2 = 0 | 811.48
312.96 K, 17991 kPa, x2 = 0 | 812.12
312.96 K, 19007 kPa, x2 = 0 | 812.79
312.96 K, 19992 kPa, x2 = 0 | 813.44
312.96 K, 21031 kPa, x2 = 0 | 814.1
312.96 K, 22041 kPa, x2 = 0 | 814.76
312.96 K, 23014 kPa, x2 = 0 | 815.41
312.96 K, 24003 kPa, x2 = 0 | 816.04
312.96 K, 25037 kPa, x2 = 0 | 816.73
313.09 K, 6030 kPa, x2 = 0.3624 | 824
313.09 K, 6997 kPa, x2 = 0.3624 | 825.21
313.09 K, 8012 kPa, x2 = 0.3624 | 826.4
313.09 K, 9018 kPa, x2 = 0.3624 | 827.51
313.09 K, 10006 kPa, x2 = 0.3624 | 828.5
313.09 K, 11027 kPa, x2 = 0.3624 | 829.51
313.09 K, 12043 kPa, x2 = 0.3624 | 830.52
313.09 K, 13029 kPa, x2 = 0.3624 | 831.45
313.09 K, 13978 kPa, x2 = 0.3624 | 832.37
313.09 K, 15011 kPa, x2 = 0.3624 | 833.36
313.09 K, 16002 kPa, x2 = 0.3624 | 834.27
313.09 K, 17008 kPa, x2 = 0.3624 | 835.17
313.09 K, 17989 kPa, x2 = 0.3624 | 836.08
313.09 K, 19002 kPa, x2 = 0.3624 | 837
313.09 K, 20008 kPa, x2 = 0.3624 | 837.88
313.09 K, 21025 kPa, x2 = 0.3624 | 838.76
313.09 K, 21983 kPa, x2 = 0.3624 | 839.58
313.09 K, 23039 kPa, x2 = 0.3624 | 840.51
313.09 K, 24001 kPa, x2 = 0.3624 | 841.34
313.1 K, 7022 kPa, x2 = 0.4651 | 831.11
313.1 K, 8019 kPa, x2 = 0.4651 | 832.63
313.1 K, 9041 kPa, x2 = 0.4651 | 834.14
313.1 K, 10006 kPa, x2 = 0.8067 | 827.85
313.1 K, 10013 kPa, x2 = 0.4651 | 835.54
313.1 K, 10035 kPa, x2 = 0.9757 | 716.11
313.1 K, 11006 kPa, x2 = 0.8067 | 834.45
313.1 K, 11016 kPa, x2 = 0.4651 | 836.96
313.1 K, 11020 kPa, x2 = 0.9757 | 742.56
313.1 K, 11992 kPa, x2 = 0.9757 | 762.5
313.1 K, 12018 kPa, x2 = 0.4651 | 838.32
313.1 K, 12019 kPa, x2 = 0.8067 | 840.12
313.1 K, 13002 kPa, x2 = 0.8067 | 845.06
313.1 K, 13005 kPa, x2 = 0.4651 | 839.67
313.1 K, 13014 kPa, x2 = 0.9757 | 779.62
313.1 K, 13996 kPa, x2 = 0.8067 | 849.67
313.1 K, 14022 kPa, x2 = 0.9757 | 793.9
313.1 K, 14035 kPa, x2 = 0.4651 | 841.03
313.1 K, 15002 kPa, x2 = 0.9757 | 806.06
313.1 K, 15010 kPa, x2 = 0.4651 | 842.33
313.1 K, 15017 kPa, x2 = 0.8067 | 854.05
313.1 K, 16001 kPa, x2 = 0.9757 | 817.16
313.1 K, 16018 kPa, x2 = 0.4651 | 843.63
313.1 K, 16028 kPa, x2 = 0.8067 | 858.11
313.1 K, 17009 kPa, x2 = 0.8067 | 861.86
313.1 K, 17011 kPa, x2 = 0.4651 | 844.89
313.1 K, 17026 kPa, x2 = 0.9757 | 827.46
313.1 K, 17998 kPa, x2 = 0.9757 | 836.37
313.1 K, 18010 kPa, x2 = 0.4651 | 846.15
313.1 K, 18017 kPa, x2 = 0.8067 | 865.48
313.1 K, 18996 kPa, x2 = 0.4651 | 847.39
313.1 K, 19027 kPa, x2 = 0.8067 | 868.98
313.1 K, 19034 kPa, x2 = 0.9757 | 845.17
313.1 K, 19996 kPa, x2 = 0.8067 | 872.2
313.1 K, 20005 kPa, x2 = 0.9757 | 852.85
313.1 K, 20038 kPa, x2 = 0.4651 | 848.66
313.1 K, 20988 kPa, x2 = 0.4651 | 849.83
313.1 K, 20988 kPa, x2 = 0.9757 | 860.09
313.1 K, 21011 kPa, x2 = 0.8067 | 875.4
313.1 K, 21994 kPa, x2 = 0.9757 | 867.1
313.1 K, 22004 kPa, x2 = 0.8067 | 878.43
313.1 K, 22029 kPa, x2 = 0.4651 | 851.07
313.1 K, 22839 kPa, x2 = 0.9757 | 872.7
313.1 K, 22988 kPa, x2 = 0.4651 | 852.24
313.1 K, 22990 kPa, x2 = 0.8067 | 881.33
313.11 K, 3017 kPa, x2 = 0.0816 | 805.83
313.11 K, 4040 kPa, x2 = 0.0816 | 806.66
313.11 K, 5020 kPa, x2 = 0.0816 | 807.44
313.11 K, 6033 kPa, x2 = 0.0816 | 808.27
313.11 K, 6980 kPa, x2 = 0.0816 | 809.01
313.11 K, 8003 kPa, x2 = 0.0816 | 809.81
313.11 K, 9050 kPa, x2 = 0.0816 | 810.62
313.11 K, 10006 kPa, x2 = 0.0816 | 811.35
313.11 K, 10023 kPa, x2 = 0.9216 | 783.1
313.11 K, 11007 kPa, x2 = 0.9216 | 796.3
313.11 K, 11029 kPa, x2 = 0.0816 | 812.13
313.11 K, 12014 kPa, x2 = 0.9216 | 807.61
313.11 K, 12040 kPa, x2 = 0.0816 | 812.89
313.11 K, 13034 kPa, x2 = 0.0816 | 813.62
313.11 K, 13034 kPa, x2 = 0.9216 | 817.54
313.11 K, 14013 kPa, x2 = 0.9216 | 826.1
313.11 K, 14032 kPa, x2 = 0.0816 | 814.36
313.11 K, 15008 kPa, x2 = 0.0816 | 815.08
313.11 K, 15032 kPa, x2 = 0.9216 | 834.15
313.11 K, 16011 kPa, x2 = 0.9216 | 841.25
313.11 K, 16019 kPa, x2 = 0.0816 | 815.8
313.11 K, 17000 kPa, x2 = 0.9216 | 847.91
313.11 K, 17024 kPa, x2 = 0.0816 | 816.51
313.11 K, 18011 kPa, x2 = 0.9216 | 854.26
313.11 K, 18058 kPa, x2 = 0.0816 | 817.22
313.11 K, 18990 kPa, x2 = 0.0816 | 817.88
313.11 K, 19003 kPa, x2 = 0.9216 | 860.12
313.11 K, 20009 kPa, x2 = 0.9216 | 865.74
313.11 K, 20043 kPa, x2 = 0.0816 | 818.6
313.11 K, 20983 kPa, x2 = 0.9216 | 870.88
313.11 K, 21042 kPa, x2 = 0.0816 | 819.28
313.11 K, 22024 kPa, x2 = 0.0816 | 819.97
313.11 K, 23035 kPa, x2 = 0.0816 | 820.66
